According to ChEMBL document CHEMBL5154787 (J Med Chem, 2022):

Experiments:
[1] = target: Dual specificity protein kinase CLK4 (Homo sapiens, UniProt Q9HAZ1); test: Inhibition of CLK4 (unknown origin)
[2] = Metabolic stability in human liver microsomes assessed as parent compound remaining at 0.5 uM incubated for 10 mins in presence of NADPH by LC-MS/MS analysis; type: ADME, Microsome; settings: read-out: Stability
[3] = target: AP2-associated protein kinase 1 (Mus musculus, UniProt Q3UHJ0); test: Displacement of 3H-LP-927443 from AAK1 in C57BL6 mouse brain homogenate assessed as inhibition constant incubated for 1 hr by liquid scintillation counter analysis; type: tissue-based
[4] = target: Dual specificity protein kinase CLK1 (Homo sapiens, UniProt P49759); test: Inhibition of CLK1 (unknown origin)
[5] = Cardiotoxicity in aortic ring (unknown origin) assessed as relaxation of phenylephrine induced aortic ring contraction at 10 uM incubated for 1 hr; type: toxicity, tissue-based, Aorta; design: scale not given: the % may be the effect or the level left; settings: human
[6] = target: MAP kinase-interacting serine/threonine-protein kinase 2 (Homo sapiens, UniProt Q9HBH9); test: Inhibition of MNK2 (unknown origin)
[7] = Metabolic stability in mouse liver microsomes assessed as parent compound remaining at 0.5 uM incubated for 10 mins in presence of NADPH by LC-MS/MS analysis; type: ADME, Microsome; settings: liver microsomes, read-out: Stability
[8] = Metabolic stability in rat liver microsomes assessed as parent compound remaining at 0.5 uM incubated for 10 mins in presence of NADPH by LC-MS/MS analysis; type: ADME, Microsome; settings: read-out: Stability
Cytochrome P450 3A4 = Cytochrome P450 3A4 (Homo sapiens, UniProt P08684); test: Inhibition of CYP3A4 (unknown origin) incubated for 10 mins in presence of NADPH by LC-MS/MS analysis; type: ADME
[9] = target: T1, AP2-associated protein kinase 1 (Homo sapiens, UniProt Q2M2I8); test: Inhibition of bacterially expressed GST-Xa-tagged human AAK1 using 5-FAM-labelled Aha-KEEQSQITSQVTGQIGWR-NH2 peptide as substrate incubated for 3 hrs in presence of ATP by electrophoretic analysis
[10] = target: Rho-associated protein kinase 2 (Homo sapiens, UniProt O75116); test: Inhibition of ROCK2 (unknown origin)
[11] = target: T2, Dual specificity mitogen-activated protein kinase kinase 1 (Homo sapiens, UniProt Q02750); test: Inhibition of MEK1 (unknown origin)
[12] = target: BMP-2-inducible protein kinase (Homo sapiens, UniProt Q9NSY1); test: Inhibition of BIKE (unknown origin)
[13] = target: T1, AP2-associated protein kinase 1; test: Inhibition of full length human AAK1 expressed in HEK293F cells assessed as suppression of AP2 phosphorylation measured after 3 hrs by Western blot analysis based cellular assay; type: cell-based
[14] = target: T2, Dual specificity mitogen-activated protein kinase kinase 1; test: Inhibition of MAP2K1 (unknown origin)
[15] = target: T3, Homeodomain-interacting protein kinase 4 (Homo sapiens, UniProt Q8NE63); test: Inhibition of HIPK4 (unknown origin)
T3 sequence (Q8NE63 whole entry): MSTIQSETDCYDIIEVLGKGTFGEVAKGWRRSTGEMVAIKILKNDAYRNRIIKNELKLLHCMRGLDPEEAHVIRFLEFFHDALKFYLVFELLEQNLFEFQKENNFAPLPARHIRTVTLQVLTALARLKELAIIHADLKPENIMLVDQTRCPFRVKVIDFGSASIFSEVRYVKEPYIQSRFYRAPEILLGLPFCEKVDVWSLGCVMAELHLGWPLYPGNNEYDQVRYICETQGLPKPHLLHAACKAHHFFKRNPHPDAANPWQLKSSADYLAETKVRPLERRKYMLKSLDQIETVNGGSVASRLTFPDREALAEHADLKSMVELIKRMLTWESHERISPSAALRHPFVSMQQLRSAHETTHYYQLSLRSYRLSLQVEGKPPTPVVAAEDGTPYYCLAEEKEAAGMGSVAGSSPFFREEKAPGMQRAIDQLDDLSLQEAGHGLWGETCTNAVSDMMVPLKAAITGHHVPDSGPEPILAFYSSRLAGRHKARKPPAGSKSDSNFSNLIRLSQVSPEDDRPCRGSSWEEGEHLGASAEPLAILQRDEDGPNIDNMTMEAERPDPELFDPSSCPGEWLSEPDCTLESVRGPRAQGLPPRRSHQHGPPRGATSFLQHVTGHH

[16] = target: Tyrosine-protein kinase JAK2 (Homo sapiens, UniProt O60674); test: Inhibition of JAK2 (unknown origin)
[17] = target: T2, Dual specificity mitogen-activated protein kinase kinase 1; test: Inhibition of MEK1/MAP2K1 (unknown origin)
[18] = target: Death-associated protein kinase 3 (Homo sapiens, UniProt O43293); test: Inhibition of DAPK3 (unknown origin)
[19] = target: Serine/threonine-protein kinase N2 (Homo sapiens, UniProt Q16513); test: Inhibition of PKN2 (unknown origin)
[20] = target: Serine/threonine-protein kinase tousled-like 2 (Homo sapiens, UniProt Q86UE8); test: Inhibition of TLK2 (unknown origin)
[21] = target: Death-associated protein kinase 1 (Homo sapiens, UniProt P53355); test: Inhibition of DAPK1 (unknown origin)
[22] = target: MAP kinase-interacting serine/threonine-protein kinase 1 (Homo sapiens, UniProt Q9BUB5); test: Inhibition of MNK1 (unknown origin)
[23] = target: Citron Rho-interacting kinase (Homo sapiens, UniProt O14578); test: Inhibition of CRIK (unknown origin)
[24] = target: Serine/threonine-protein kinase tousled-like 1 (Homo sapiens, UniProt Q9UKI8); test: Inhibition of TLK1 (unknown origin)
[25] = target: Myosin light chain kinase 2, skeletal/cardiac muscle (Homo sapiens, UniProt Q9H1R3); test: Inhibition of MYLK2 (unknown origin)
[26] = target: STE20/SPS1-related proline-alanine-rich protein kinase (Homo sapiens, UniProt Q9UEW8); test: Inhibition of STLK3 (unknown origin)
[27] = target: Protein kinase C beta type (Homo sapiens, UniProt P05771); test: Inhibition of PKCb2 (unknown origin)
Aurora kinase C = Aurora kinase C (Homo sapiens, UniProt Q9UQB9); test: Inhibition of AURC (unknown origin)
[28] = Inhibition of IGFR (unknown origin); design: species or system Homo sapiens
[29] = Inhibition of CK2A2 (unknown origin); design: species or system Homo sapiens
[30] = target: Tyrosine-protein kinase receptor TYRO3 (Homo sapiens, UniProt Q06418); test: Inhibition of TYRO3 (unknown origin)
[31] = Inhibition of MEK (unknown origin); design: species or system Homo sapiens
Myotonin-protein kinase = Myotonin-protein kinase (Homo sapiens, UniProt Q09013); test: Inhibition of DMPK1 (unknown origin)
[32] = target: T4, Cyclin-G-associated kinase (Homo sapiens, UniProt O14976); test: Inhibition of GAK (unknown origin)
T4 sequence (O14976 whole entry): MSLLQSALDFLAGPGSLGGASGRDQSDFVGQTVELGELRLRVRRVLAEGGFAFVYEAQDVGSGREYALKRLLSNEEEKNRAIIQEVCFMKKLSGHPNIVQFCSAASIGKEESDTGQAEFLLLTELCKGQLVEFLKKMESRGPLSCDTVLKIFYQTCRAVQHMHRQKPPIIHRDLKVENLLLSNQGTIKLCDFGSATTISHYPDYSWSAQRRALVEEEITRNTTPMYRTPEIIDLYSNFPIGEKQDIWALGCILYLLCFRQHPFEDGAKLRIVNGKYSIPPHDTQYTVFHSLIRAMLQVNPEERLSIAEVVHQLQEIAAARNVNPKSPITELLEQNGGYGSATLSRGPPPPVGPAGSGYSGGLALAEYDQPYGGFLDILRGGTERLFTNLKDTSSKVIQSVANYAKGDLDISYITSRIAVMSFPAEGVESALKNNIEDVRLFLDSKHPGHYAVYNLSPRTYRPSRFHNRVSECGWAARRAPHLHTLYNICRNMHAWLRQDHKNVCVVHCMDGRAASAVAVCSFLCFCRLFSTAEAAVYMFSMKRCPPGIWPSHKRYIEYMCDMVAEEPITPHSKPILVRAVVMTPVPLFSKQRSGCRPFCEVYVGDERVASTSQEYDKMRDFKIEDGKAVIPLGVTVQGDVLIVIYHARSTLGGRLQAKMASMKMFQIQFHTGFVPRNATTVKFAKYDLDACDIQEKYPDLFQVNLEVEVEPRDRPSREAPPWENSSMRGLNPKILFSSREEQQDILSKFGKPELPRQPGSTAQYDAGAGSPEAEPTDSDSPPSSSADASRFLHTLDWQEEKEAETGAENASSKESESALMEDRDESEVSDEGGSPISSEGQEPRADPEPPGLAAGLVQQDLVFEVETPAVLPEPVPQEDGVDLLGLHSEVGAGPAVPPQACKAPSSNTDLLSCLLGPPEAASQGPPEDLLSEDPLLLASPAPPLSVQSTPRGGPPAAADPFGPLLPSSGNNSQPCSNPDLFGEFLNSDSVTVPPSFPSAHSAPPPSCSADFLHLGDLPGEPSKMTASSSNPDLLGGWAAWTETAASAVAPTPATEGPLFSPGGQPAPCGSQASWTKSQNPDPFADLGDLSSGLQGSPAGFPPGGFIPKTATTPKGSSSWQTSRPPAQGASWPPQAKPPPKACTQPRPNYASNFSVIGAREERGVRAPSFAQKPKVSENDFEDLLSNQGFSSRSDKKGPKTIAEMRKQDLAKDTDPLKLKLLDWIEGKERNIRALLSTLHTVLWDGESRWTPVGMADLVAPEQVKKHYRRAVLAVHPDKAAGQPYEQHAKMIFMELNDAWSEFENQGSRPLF

Chain of MAP kinase-interacting serine/threonine-protein kinase 2 (Q9HBH9 whole entry): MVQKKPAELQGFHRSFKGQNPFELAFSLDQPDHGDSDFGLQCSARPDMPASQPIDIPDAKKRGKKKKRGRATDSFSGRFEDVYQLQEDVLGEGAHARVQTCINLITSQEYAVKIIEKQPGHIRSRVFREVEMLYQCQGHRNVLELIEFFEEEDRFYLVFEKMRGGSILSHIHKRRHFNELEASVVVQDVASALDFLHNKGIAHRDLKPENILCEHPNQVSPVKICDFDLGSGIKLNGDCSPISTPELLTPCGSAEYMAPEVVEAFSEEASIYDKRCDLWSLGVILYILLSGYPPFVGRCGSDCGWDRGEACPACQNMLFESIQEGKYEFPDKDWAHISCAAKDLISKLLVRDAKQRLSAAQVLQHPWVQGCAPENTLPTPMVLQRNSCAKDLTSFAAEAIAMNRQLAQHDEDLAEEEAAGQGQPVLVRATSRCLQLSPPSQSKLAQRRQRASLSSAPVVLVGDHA
Chain of Cytochrome P450 3A4 (P08684 whole entry): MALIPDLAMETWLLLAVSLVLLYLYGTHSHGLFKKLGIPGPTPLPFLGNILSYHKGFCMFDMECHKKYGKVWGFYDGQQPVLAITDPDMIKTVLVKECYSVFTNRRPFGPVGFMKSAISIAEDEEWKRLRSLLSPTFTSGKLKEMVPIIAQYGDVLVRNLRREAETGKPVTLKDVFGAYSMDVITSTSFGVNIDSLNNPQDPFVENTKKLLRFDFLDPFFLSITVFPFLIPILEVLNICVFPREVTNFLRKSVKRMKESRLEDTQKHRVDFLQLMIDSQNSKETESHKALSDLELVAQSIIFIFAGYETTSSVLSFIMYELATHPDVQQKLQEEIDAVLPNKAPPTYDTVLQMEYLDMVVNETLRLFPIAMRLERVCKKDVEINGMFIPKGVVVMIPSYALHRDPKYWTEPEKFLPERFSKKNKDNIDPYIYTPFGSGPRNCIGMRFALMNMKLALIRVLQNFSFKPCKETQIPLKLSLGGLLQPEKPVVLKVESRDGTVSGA
Chain of AP2-associated protein kinase 1 (Mus musculus, UniProt Q3UHJ0) (Q3UHJ0 whole entry): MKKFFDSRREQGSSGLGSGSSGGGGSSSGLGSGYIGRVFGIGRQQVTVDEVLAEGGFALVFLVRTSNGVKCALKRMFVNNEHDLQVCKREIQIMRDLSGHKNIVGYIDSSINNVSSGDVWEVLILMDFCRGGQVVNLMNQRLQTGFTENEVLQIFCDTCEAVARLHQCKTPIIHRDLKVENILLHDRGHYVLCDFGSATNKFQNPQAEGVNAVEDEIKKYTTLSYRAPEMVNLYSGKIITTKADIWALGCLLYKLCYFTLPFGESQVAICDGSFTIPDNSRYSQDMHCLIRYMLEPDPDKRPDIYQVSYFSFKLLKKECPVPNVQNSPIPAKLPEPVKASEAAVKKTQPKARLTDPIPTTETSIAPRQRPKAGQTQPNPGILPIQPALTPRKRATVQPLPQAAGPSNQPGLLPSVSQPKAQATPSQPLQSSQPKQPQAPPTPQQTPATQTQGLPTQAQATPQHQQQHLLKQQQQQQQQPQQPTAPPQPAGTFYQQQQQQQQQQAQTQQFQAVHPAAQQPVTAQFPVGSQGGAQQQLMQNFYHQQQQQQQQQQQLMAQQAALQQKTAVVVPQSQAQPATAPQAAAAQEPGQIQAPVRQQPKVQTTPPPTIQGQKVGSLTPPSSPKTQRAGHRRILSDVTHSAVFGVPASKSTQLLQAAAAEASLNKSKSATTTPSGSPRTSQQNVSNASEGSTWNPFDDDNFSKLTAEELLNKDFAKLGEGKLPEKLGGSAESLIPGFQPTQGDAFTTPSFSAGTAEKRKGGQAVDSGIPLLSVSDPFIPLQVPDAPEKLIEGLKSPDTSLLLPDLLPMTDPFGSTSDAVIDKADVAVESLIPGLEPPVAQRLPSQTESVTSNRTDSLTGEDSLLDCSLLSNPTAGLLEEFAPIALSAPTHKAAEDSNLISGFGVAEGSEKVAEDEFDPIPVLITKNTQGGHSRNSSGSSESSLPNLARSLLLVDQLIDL
T1 sequence (Q2M2I8 whole entry): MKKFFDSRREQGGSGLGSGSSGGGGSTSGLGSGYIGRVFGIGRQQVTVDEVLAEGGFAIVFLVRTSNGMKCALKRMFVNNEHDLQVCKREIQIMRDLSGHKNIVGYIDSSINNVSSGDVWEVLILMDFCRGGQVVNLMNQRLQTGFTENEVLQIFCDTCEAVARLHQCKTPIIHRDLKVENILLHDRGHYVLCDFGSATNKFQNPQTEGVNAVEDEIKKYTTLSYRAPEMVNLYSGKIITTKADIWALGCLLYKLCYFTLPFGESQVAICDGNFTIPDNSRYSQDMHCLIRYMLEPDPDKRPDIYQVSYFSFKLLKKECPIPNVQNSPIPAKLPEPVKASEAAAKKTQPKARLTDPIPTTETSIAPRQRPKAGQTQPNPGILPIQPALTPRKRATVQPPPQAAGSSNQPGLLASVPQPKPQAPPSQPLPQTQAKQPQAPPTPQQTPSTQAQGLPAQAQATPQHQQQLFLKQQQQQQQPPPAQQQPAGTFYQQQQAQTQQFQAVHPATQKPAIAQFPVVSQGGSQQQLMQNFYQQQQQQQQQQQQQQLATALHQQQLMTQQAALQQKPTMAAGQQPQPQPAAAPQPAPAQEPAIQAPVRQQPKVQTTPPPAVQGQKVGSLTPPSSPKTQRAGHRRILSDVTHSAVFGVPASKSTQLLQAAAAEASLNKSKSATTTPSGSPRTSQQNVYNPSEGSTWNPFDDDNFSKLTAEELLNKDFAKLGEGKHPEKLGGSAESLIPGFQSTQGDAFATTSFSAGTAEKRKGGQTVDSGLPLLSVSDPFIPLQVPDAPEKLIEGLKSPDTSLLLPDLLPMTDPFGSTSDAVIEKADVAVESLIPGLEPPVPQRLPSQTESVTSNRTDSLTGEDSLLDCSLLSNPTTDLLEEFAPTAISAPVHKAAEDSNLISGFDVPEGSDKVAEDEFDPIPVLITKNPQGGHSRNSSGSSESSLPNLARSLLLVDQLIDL
Chain of MAP kinase-interacting serine/threonine-protein kinase 1 (Q9BUB5 whole entry): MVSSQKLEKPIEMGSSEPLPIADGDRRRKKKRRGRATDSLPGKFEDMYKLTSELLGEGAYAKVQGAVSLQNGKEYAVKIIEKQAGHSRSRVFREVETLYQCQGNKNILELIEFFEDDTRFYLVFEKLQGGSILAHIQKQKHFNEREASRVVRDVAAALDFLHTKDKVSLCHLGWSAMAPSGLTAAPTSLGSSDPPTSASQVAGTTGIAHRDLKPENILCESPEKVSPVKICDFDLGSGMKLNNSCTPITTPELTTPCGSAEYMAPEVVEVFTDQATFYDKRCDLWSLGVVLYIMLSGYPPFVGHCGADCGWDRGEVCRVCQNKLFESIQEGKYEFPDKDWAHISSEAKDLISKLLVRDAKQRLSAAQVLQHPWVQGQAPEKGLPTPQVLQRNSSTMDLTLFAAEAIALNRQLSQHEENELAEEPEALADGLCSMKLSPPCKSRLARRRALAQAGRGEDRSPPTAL
T2 sequence (Q02750 whole entry): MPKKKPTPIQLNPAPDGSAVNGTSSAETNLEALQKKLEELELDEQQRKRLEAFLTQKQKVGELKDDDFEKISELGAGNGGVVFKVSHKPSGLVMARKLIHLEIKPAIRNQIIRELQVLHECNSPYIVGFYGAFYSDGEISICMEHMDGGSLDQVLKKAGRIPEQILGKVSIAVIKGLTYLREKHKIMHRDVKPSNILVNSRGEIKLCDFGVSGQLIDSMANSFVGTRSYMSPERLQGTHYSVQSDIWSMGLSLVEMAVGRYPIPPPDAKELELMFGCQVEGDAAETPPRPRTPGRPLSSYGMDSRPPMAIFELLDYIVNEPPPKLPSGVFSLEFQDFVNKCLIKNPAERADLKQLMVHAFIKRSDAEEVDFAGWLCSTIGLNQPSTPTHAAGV
Chain of BMP-2-inducible protein kinase (Q9NSY1 whole entry): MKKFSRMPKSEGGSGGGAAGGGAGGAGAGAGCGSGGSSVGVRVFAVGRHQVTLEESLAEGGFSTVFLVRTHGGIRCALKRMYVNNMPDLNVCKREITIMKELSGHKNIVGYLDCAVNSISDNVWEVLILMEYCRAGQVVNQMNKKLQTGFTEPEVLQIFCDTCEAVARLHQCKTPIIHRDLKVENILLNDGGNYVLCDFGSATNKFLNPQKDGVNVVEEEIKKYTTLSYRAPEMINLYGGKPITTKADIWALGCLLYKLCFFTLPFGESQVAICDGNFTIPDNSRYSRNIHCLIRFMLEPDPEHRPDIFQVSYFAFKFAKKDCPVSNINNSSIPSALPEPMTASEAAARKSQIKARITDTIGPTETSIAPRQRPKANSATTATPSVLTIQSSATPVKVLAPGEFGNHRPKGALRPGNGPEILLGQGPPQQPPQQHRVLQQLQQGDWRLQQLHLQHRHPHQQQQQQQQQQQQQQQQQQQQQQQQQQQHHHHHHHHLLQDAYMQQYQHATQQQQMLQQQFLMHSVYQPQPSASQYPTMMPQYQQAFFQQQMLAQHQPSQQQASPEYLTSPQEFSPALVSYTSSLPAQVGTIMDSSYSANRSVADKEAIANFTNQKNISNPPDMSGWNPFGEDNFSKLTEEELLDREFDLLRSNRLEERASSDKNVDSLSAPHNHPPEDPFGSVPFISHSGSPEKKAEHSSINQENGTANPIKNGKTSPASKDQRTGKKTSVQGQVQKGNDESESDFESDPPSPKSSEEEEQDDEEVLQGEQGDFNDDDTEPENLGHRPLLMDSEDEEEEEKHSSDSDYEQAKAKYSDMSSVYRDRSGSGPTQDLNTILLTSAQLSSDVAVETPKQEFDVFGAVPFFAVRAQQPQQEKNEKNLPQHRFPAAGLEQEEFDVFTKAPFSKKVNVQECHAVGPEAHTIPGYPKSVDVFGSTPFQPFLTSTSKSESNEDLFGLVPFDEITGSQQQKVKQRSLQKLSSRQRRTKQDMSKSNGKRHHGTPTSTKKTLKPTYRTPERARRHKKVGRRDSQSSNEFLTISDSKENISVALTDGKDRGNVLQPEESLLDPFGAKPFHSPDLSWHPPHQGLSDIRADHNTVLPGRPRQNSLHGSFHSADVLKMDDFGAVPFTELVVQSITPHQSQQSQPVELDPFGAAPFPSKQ

Work on COC(=O)Nc1cc(-c2cnc(OC[C@@](C)(N)CC(C)C)c(C#N)c2)ccn1 yielded an IC50 [1] of 590 nM, a remaining at 10 min, 0.5 µM [2] of 95% and a Ki [3] of 0.15 nM. The IC50 [4] was 1700 nM, the Activity [5] was 95% and the IC50 [6] was 900 nM. For the same compound, the remaining at 10 min, 0.5 µM [7] was 86%, the remaining at 10 min, 0.5 µM [8] was 80% and the IC50 (Cytochrome P450 3A4) was 2200 nM. It also gave an IC50 [9] of 1 nM and an IC50 [10] of 1100 nM.

Work on COC(=O)Nc1cc(-c2cnc(OC[C@@](C)(N)CC(C)C)c(Cl)c2)ccn1 yielded an IC50 [1] of 740 nM, an IC50 [11] of 1800 nM and an IC50 [12] of 6 nM. For the same compound, the remaining at 10 min, 0.5 µM [2] was 90%, the Ki [3] was 0.11 nM and the IC50 [13] was 4.2 nM. For the same compound, the Activity [5] was 87%, the IC50 [14] was 1860 nM and the remaining at 10 min, 0.5 µM [7] was 65%. It also gave a remaining at 10 min, 0.5 µM [8] of 73%, an IC50 (Cytochrome P450 3A4) of over 20000 nM and an IC50 [9] of 0.4 nM. For the same compound, the IC50 [15] was 1300 nM and the IC50 [10] was 1100 nM.

COC(=O)Nc1cc(-c2ccc(OC[C@@](C)(N)CC(C)C)c(Cl)n2)ccn1 gave an IC50 [16] of 1600 nM, an IC50 [17] of 1200 nM and an IC50 [18] of 1100 nM. It also gave an IC50 [19] of 140 nM, an IC50 [20] of 1400 nM and an IC50 [12] of 30 nM. It also gave a remaining at 10 min, 0.5 µM [2] of 93%, a Ki [3] of 0.17 nM and an IC50 [21] of 810 nM. It also gave an IC50 [13] of 1.2 nM, an IC50 [22] of 120 nM and an IC50 [23] of 90 nM. The Activity [5] was 74%, the IC50 [6] was 1200 nM and the remaining at 10 min, 0.5 µM [7] was 72%. The remaining at 10 min, 0.5 µM [8] was 99%, the IC50 (Cytochrome P450 3A4) was over 20000 nM and the IC50 [24] was 1200 nM. It also gave an IC50 [9] of 0.5 nM, an IC50 [25] of 650 nM and an IC50 [26] of 1400 nM. For the same compound, the IC50 [15] was 1100 nM.

In the case of Cc1cc(-c2cc(C(F)F)c(OC[C@@](C)(N)CC(C)C)cn2)ccn1, the IC50 [12] is reported as 180 nM, the remaining at 10 min, 0.5 µM [2] is reported as 84% and the Ki [3] is reported as 0.18 nM. It also gave an IC50 [13] of 0.9 nM, an IC50 [22] of 250 nM and an IC50 [23] of 750 nM. It also gave an Activity [5] of 85%, an IC50 [27] of 1600 nM and a remaining at 10 min, 0.5 µM [7] of 76%. The IC50 (Aurora kinase C) was 540 nM, the remaining at 10 min, 0.5 µM [8] was 81% and the IC50 (Cytochrome P450 3A4) was over 20000 nM. For the same compound, the IC50 [9] was 0.5 nM and the IC50 [25] was 350 nM.

Work on CC(C)C[C@](C)(N)COc1cnc(-c2ccnc(Cl)c2)cc1C(F)F yielded an IC50 [28] of 1700 nM, an IC50 [12] of 260 nM and a remaining at 10 min, 0.5 µM [2] of 92%. The IC50 [13] was 2.7 nM, the IC50 [22] was 490 nM and the Activity [5] was 81%. The remaining at 10 min, 0.5 µM [7] was 93%, the remaining at 10 min, 0.5 µM [8] was 93% and the IC50 (Cytochrome P450 3A4) was over 20000 nM. For the same compound, the IC50 [9] was 0.8 nM.

With COC(=O)Nc1cc(-c2ccc(OC[C@@](C)(N)CC(C)C)c(C(F)F)n2)ccn1 the IC50 [18] was 1100 nM, the IC50 [29] was 680 nM and the IC50 [12] was 20 nM. The remaining at 10 min, 0.5 µM [2] was 77%, the Ki [3] was 0.07 nM and the IC50 [21] was 560 nM. For the same compound, the IC50 [30] was 1300 nM, the IC50 [31] was 610 nM and the Activity [5] was 89%. For the same compound, the IC50 [6] was 120 nM, the IC50 (Myotonin-protein kinase) was 1500 nM and the remaining at 10 min, 0.5 µM [7] was 84%. It also gave a remaining at 10 min, 0.5 µM [8] of 91%, an IC50 (Cytochrome P450 3A4) of over 20000 nM and an IC50 [9] of 0.8 nM. It also gave an IC50 [15] of 650 nM, an IC50 [10] of 140 nM and an IC50 [32] of 160 nM.
